Measurements from patent US8716303B2, “N-(hetero)aryl-pyrrolidine derivatives of pyrazol-4-yl-pyrrolo[2,3-d]pyrimidines and pyrrol-3-yl-pyrrolo[2,3-d]pyrimidines as janus kinase inhibitors” (Incyte Corporation, priority 2009, dated 2014).
Structures can show the parent of a compound that is named as a salt.

What was measured:
Jak2 (a.a. 828-1132) = target: T1, Jak2 (a.a. 828-1132) (Homo sapiens, UniProt O60674); experiment: In vitro JAK kinase assay (HTRF, phosphorylation of a biotinylated peptide), JAK2, reported as JAK2/JAK1 ratio; type: biochemical
T1 construct: Jak2 (a.a. 828-1132); His tag (N); made in house; host or cells: insect cells (baculovirus)
Protocol: (§1) Compounds herein were tested for inhibitory activity of JAK targets according to the following in vitro assay described in Park et al., Analytical Biochemistry 1999, 269, 94-104. The catalytic domains of human JAK1 (a.a. 837-1142), Jak2 (a.a. 828-1132) and Jak3 (a.a. 781-1124) with an N-terminal His tag were expressed using baculovirus in insect cells and purified. The catalytic activity of JAK1, JAK2 or JAK3 was assayed by measuring the phosphorylation of a biotinylated peptide. The phosphorylated peptide was detected by homogenous time resolved fluorescence (HTRF). IC50s of compounds were measured for each kinase in the 40 microL reactions that contain the enzyme, ATP and 500 nM peptide in 50 mM Tris (pH 7.8) buffer with 100 mM NaCl, 5 mM DTT, and 0.1 mg/mL (0.01%) BSA. The ATP concentration in the reactions was 90 μM for Jak1, 30 μM for Jak2 and 3 μM for Jak3 for Km conditions. For the 1 mM IC50 measurements, ATP concentration in the reactions was 1 mM. Reactions were carried out at RT for 1 h and then stopped with 20 μL 45 mM EDTA, 300 nM SA-APC, 6 nM Eu-Py20 in assay buffer (Perkin Elmer, Boston, Mass.). Binding to the Europium labeled antibody took place for 40 min and HTRF signal was measured on a Fusion plate reader (Perkin Elmer, Boston, Mass.).
(§2) Compounds herein were tested for inhibitory activity of JAK1 and JAK2 targets according to the assay of Example A (experiments run at Km or 1 mM as indicated). The symbol “+” indicates an IC50<50 nM; the symbol “++” indicates an IC50≧50 and ≦100 nM; and the symbol “+++” indicates an IC50>100 and ≦500 nM.

[1] = target: T2, human JAK1 (a.a. 837-1142) (Homo sapiens, UniProt P23458); experiment: In vitro JAK kinase assay (HTRF, phosphorylation of a biotinylated peptide), JAK1; type: biochemical
T2 construct: human JAK1 (a.a. 837-1142); His tag (N); made in house; host or cells: insect cells (baculovirus)
Protocol: as §1, §2

[2] = Assay Conditions Km (ATP 90 μM for Jak1, 30 μM for Jak2)
[3] = Assay Conditions Km (ATP 90 μM for Jak1)

T1 sequence (O60674 828-1132): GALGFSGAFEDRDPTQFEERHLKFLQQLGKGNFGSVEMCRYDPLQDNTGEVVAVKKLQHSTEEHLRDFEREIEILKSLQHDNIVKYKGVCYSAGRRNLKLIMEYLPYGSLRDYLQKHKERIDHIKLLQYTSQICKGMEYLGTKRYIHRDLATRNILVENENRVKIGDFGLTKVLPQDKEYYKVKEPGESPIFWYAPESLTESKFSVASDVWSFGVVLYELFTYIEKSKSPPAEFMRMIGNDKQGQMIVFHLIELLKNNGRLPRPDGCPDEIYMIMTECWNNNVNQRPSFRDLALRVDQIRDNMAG
T2 sequence (P23458 849-1154): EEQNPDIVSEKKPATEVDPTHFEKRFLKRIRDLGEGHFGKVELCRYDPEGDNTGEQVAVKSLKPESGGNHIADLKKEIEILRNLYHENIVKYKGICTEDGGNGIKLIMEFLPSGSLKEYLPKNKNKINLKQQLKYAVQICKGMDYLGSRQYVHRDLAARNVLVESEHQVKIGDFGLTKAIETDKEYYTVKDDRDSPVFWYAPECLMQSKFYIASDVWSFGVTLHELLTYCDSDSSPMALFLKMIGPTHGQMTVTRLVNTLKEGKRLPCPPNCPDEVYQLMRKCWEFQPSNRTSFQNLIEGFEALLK

| SMILES | JAK2/JAK1 IC50 ratio (Jak2 (a.a. 828-1132); Assay Conditions 1 mM ATP) | IC50 ([1]; Assay Conditions 1 mM ATP) | JAK2/JAK1 IC50 ratio (Jak2 (a.a. 828-1132); [2]) | IC50 [1, 3] |
| --- | --- | --- | --- | --- |
| N#CC[C@@H]([C@H]1CCN(c2c(F)cccc2C#N)C1)n1cc(-c2ncnc3[nH]ccc23)cn1 [Example 58, 2-((3S)-3-{(1S)-2-cyano-1-[4-(7H-pyrrolo[2,3-d]pyrimidin-4-yl)-1H-pyrazol-1-yl]ethyl}pyrrolidin-l-yl)-3-fluorobenzonitrile trifluoroacetate salt] | 8 | < 50 nM | – | – |
| N#CC[C@@H]([C@H]1CCN(c2nccc(C(F)F)c2C#N)C1)n1cc(-c2ncnc3[nH]ccc23)cn1 [Example 103, 2-((3S)-3-{(1S)-2-cyano-1-[4-(7H-pyrrolo[2,3-d]pyrimidin-4-yl)-1H-pyrazol-1-yl]ethyl}pyrrolidin-1-yl)-4-(difluoromethyl)nicotinonitrile bis(trifluoroacetate)] | 22.8 | < 50 nM | – | – |
| COc1cccc(N2CC[C@H]([C@H](CC#N)n3cc(-c4ncnc5[nH]ccc45)cn3)C2)c1C#N [Example 55, 2-((3S)-3-{(1S)-2-cyano-1-[4-(7H-pyrrolo[2,3-d]pyrimidin-4-yl)-1H-pyrazol-1-yl]ethyl}pyrrolidin-1-yl)-6-methoxybenzonitrile trifluoroacetate salt] | >8 | < 50 nM | – | – |
| N#CC[C@@H]([C@H]1CCN(c2cccc(C#N)c2C#N)C1)n1cc(-c2ncnc3[nH]ccc23)cn1 [Example 49, 3-((3S)-3-{(1S)-2-cyano-1-[4-(7H-pyrrolo[2,3-d]pyrimidin-4-yl)-1H-pyrazol-1-yl]ethyl}pyrrolidin-1-yl)phthalonitrile trifluoroacetate] | 10.2 | < 50 nM | – | – |
| N#Cc1csc(N2CC[C@H](C(CF)n3cc(-c4ncnc5[nH]ccc45)cn3)C2)c1C#N (stereo partly drawn) [Example 80, 2-((3S)-3-{2-fluoro-1-[4-(7H-pyrrolo[2,3-d]pyrimidin-4-yl)-1H-pyrazol-1-yl]ethyl}pyrrolidin-1-yl)thiophene-3,4-dicarbonitrile] | 12.1 | < 50 nM | – | – |
| CC(O)c1cnc(N2CC[C@H]([C@H](CC#N)n3cc(-c4ncnc5[nH]ccc45)cn3)C2)c(C#N)n1 (stereo partly drawn) [Example 146, 3-((3S)-3-{(1S)-2-cyano-1-[4-(7H-pyrrolo[2,3-d]pyrimidin-4-yl)-1H-pyrazol-1-yl]ethyl}pyrrolidin-1-yl)-6-(1-hydroxyethyl)pyrazine-2-carbonitrile trifluoroacetate] | >4.8 | < 50 nM | – | – |
| N#CC[C@@H]([C@H]1CCN(c2cccc(F)c2C#N)C1)n1cc(-c2ncnc3[nH]ccc23)cn1 [Example 54, 2-((3S)-3-{(1S)-2-cyano-1-[4-(7H-pyrrolo[2,3-d]pyrimidin-4-yl)-1H pyrazol-1-yl]ethyl}pyrrolidin-1-yl) 6-fluorobenzonitrile trifluoroacetate salt] | 4.6 | < 50 nM | – | – |
| N#CCC(n1cc(-c2ncnc3[nH]ccc23)cn1)C1(F)CCN(c2nc3cccnc3o2)C1 (single isomer, unassigned) [31, Step 4b, enantiomer 1] | >2.5 | 100 to 500 nM | – | – |
| N#CCC(C1CCN(c2scc(C#N)c2C#N)C1)n1ccc(-c2ncnc3[nH]ccc23)c1 (single isomer, unassigned) [81 enantiomer 1] | 40.0 | < 50 nM | – | – |
| N#CCC(C1CCN(c2scnc2C#N)C1)n1ccc(-c2ncnc3[nH]ccc23)c1 (racemic) [Example 149-1, 5-(3-{2-cyano-1-[3-(7H-pyrrolo[2,3-d]pyrimidin-4-yl)-1H-pyrrol-1-yl]ethyl}pyrrolidin-1-yl)-1,3-thiazole-4-carbonitrile] | 9.9 | < 50 nM | – | – |
| N#CCC(C1CCN(c2nc3cccc(C#N)c3o2)C1)n1cc(-c2ncnc3[nH]ccc23)cn1 (single isomer, unassigned) [Example 160, 2-(3-{2-cyano-1-[4-(7H-pyrrolo[2,3-d]pyrimidin-4-yl)-1H-pyrazol-1-yl]ethyl}pyrrolidin-1-yl)-1,3-benzoxazole-7-carbonitrile] | >11.4 | < 50 nM | – | – |
| N#CC[C@@H]([C@H]1CCN(c2cccc(Br)c2C#N)C1)n1cc(-c2ncnc3[nH]ccc23)cn1 [Example 57, 2-bromo-6-((3S)-3-{(1S)-2-cyano-1-[4-(7H-pyrrolo[2,3-d]pyrimidin-4-yl)-1H-pyrazol-1-yl]ethyl}pyrrolidin-1-yl)benzonitrile trifluoroacetate salt] | 37 | < 50 nM | – | – |
| N#CCC(C1CCN(c2ncc3cccc(Cl)c3n2)C1)n1cc(-c2ncnc3[nH]ccc23)cn1 (stereo not drawn) [Example 44, 3-[1-(8-chloroquinazolin-2-yl)pyrrolidin-3-yl]-3-[4-(7H-pyrrolo[2,3-d]pyrimidin-4-yl)-1H-pyrazol-1-yl]propanenitrile trifluoroacetate salt] | – | – | 3 | < 50 nM |
| N#CCC(C1CCN(c2nc3cccc(F)c3o2)C1)n1cc(-c2ncnc3[nH]ccc23)cn1 (single isomer, unassigned) [Example 21, 3-[1-(7-fluoro-1,3-benzoxazol-2-yl)pyrrolidin-3-yl]-3-[4-(7H-pyrrolo[2,3-d]pyrimidin-4-yl)-1H-pyrazol-1-yl]propanenitrile] | 31.8 | < 50 nM | – | – |
| N#CC[C@@H]([C@H]1CCN(c2scc(Cl)c2C#N)C1)n1cc(-c2ncnc3[nH]ccc23)cn1 [Example 78, 4-chloro-2-((3S)-3-{(1S)-2-cyano-1-[4-(7H-pyrrolo[2,3-d]pyrimidin-4-yl)-1H-pyrazol-1-yl]ethyl}pyrrolidin-1-yl)thiophene-3-carbonitrile] | 32.1 | < 50 nM | – | – |
| N#CC[C@@H]([C@H]1CCN(c2nc(Cl)c(C#N)cc2F)C1)n1cc(-c2ncnc3[nH]ccc23)cn1 [Example 63, 6-((S)-3-((S)-1-(4-(7H-pyrrolo[2,3-d]pyrimidin-4-yl)-1H-pyrazol-1-yl)-2-cyanoethyl)pyrrolidin-1-yl)-2-chloro-5-fluoronicotinonitrile trifluoroacetate salt] | 7.3 | < 50 nM | – | – |
| N#CCC(C1CCN(c2nc3cc(F)cnc3o2)C1)n1cc(-c2ncnc3[nH]ccc23)cn1 (single isomer, unassigned) [Example 15, 3-[1-(6-fluoro[1,3]oxazolo[5,4-b]pyridin-2-yl)pyrrolidin-3-yl]-3-[4-(7H-pyrrolo[2,3-d]pyrimidin-4-yl)-1H-pyrazol-1-yl]propanenitrile] | – | – | 6.8 | < 50 nM |
| N#CCC(C1CCN(c2ncc3cccc(F)c3n2)C1)n1cc(-c2ncnc3[nH]ccc23)cn1 (stereo not drawn) [Example 46, 3-[1-(8-fluoroquinazolin-2-yl)pyrrolidin-3-yl]-3-[4-(7H-pyrrolo[2,3-d]pyrimidin-4-yl)-1H-pyrazol-1-yl]propanenitrile] | 3.7 | < 50 nM | – | – |
| N#CC[C@@H]([C@H]1CCN(c2ccc(F)c(F)c2C#N)C1)n1cc(-c2ncnc3[nH]ccc23)cn1 [Example 60, 6-((3S)-3-{(1S)-2-cyano-1-[4-(7H-pyrrolo[2,3-d]pyrimidin-4-yl)-1H-pyrazol-1-yl]ethyl}pyrrolidin-1-yl)-2,3-difluorobenzonitrile trifluoroacetate salt] | 6.6 | < 50 nM | – | – |
| N#CCC(C1CCN(c2ncc3c(c2C#N)SCC3)C1)n1ccc(-c2ncnc3[nH]ccc23)c1 (single isomer, unassigned) [Example 174-2, 6-(3-{2-cyano-1-[3-(7H-pyrrolo[2,3-d]pyrimidin-4-yl)-1H-pyrrol-1-yl]ethyl}pyrrolidin-1-yl)-2,3-dihydrothieno[3,2-c]pyridine-7-carbonitrile] | 11.1 | < 50 nM | – | – |
| N#CC[C@@H]([C@H]1CCN(c2ncc(CC(F)F)nc2C#N)C1)n1cc(-c2ncnc3[nH]ccc23)cn1 [Example 139, 3-((3S)-3-{(1S)-2-cyano-1-[4-(7H-pyrrolo[2,3-d]pyrimidin-4-yl)-1H-pyrazol-1-yl]ethyl}pyrrolidin-1-yl)-6-(2,2-difluoroethyl)pyrazine-2-carbonitrile trifluoroacetate] | – | < 50 nM | – | – |
| N#CC[C@@H]([C@H]1CCN(c2nc(Cl)c(F)cc2NC=O)C1)n1cc(-c2ncnc3[nH]ccc23)cn1 [Example 92, N-(2-((S)-3-((S)-1-(4-(7H-pyrrolo[2,3-d]pyrimidin-4-yl)-1H-pyrazol-1-yl)-2-cyanoethyl)pyrrolidin-1-yl)-6-chloro-5-fluoropyridin-3-yl)formamide trifluoroacetate] | – | < 50 nM | – | – |
